The target in the assay is T1, TRAP1 enzyme (Homo sapiens, UniProt Q12931).
T1 construct: 150 nM Trap1 enzyme was incubated with various concentrations of the test compound
T1 sequence (Q12931 60-704): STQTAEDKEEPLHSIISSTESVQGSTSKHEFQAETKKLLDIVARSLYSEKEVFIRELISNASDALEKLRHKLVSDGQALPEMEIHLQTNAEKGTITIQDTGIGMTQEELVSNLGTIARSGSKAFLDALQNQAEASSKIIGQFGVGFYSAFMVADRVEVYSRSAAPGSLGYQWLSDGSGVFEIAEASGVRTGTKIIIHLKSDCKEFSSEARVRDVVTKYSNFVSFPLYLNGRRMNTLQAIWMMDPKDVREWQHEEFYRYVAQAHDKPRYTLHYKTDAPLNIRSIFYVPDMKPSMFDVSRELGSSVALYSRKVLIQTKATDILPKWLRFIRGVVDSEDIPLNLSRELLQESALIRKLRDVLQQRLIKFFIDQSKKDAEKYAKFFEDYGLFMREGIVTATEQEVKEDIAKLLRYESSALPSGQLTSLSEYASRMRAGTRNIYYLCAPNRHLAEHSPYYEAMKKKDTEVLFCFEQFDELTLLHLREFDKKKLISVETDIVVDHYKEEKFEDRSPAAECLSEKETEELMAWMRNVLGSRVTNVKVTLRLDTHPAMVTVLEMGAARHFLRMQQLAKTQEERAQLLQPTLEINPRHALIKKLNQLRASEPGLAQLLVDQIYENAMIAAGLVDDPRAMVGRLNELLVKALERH
The assay is described as follows: ADP Glo assay of TRAP1 ATPase activity. The class given is biochemical. The conditions noted are these: for EC50: concentration for half maximal activation, read-out: ADP GLO DRC: GeoMean EC50; for Emax: maximal percent activation, read-out: ADP GLO DRC: Mean Emax. As to the method: Potency of test compounds to modulate the ATPase activity of TRAP1 enzyme was evaluated using ADP Glo assay. The assay is based on quantification of the ADP generated from ATP in the ATPase reaction. The assay is performed in two steps; first, after the ATPase reaction an equal volume of ADP-Glo™ Reagent is added to terminate the ATPase reaction and deplete the remaining ATP. Second, the Kinase Detection Reagent is added to simultaneously convert ADP to ATP and allow the newly synthesized ATP to be measured using a luciferase/luciferin reaction.
All the assays were carried out in a 384-well Proxiplate. The buffer used was 25 mM Pipes pH-7.5, 40 mM KCl, 0.05 mM MgCl2, 0.025% BSA, 0.316 mM EGTA, 0.003% Empigen, 0.01% Igepal. 150 nM Trap1 enzyme was incubated with various concentrations of the test compound (0.79 μM-100 μM) at 37° C. for 30 mins (except in blank wells). 20 μM ATP was added to each well to start the reaction. The plate was spun for 1 min at 1200 rpm and then incubated at 37° C. for 60 mins. 5 μl of ADP Glo reagent was added to all the wells and spun the plate for 1 min at 1200 rpm and kept it on a shaker at ambient temperature for 60 mins. 10 μl of kinase detection mix was added to all the wells and the plate was read for Luminescence at 495 nm. The amount of ADP released was estimated from ATP/ADP standard curve generated at the same experimental conditions. Emax (Maximal percent activation) and EC50 (concentration for half maximal activation) were estimated by fitting the dose response data to a sigmoidal curve fitting equation using Graphpad Prism software V. 8.

For orientation: EC50 means the concentration that produces a half-maximal response. For orientation: Emax means the maximal effect, on the per cent scale that the assay sets. As for `COc1ncc(NC(=O)c2csc(-c3ccccc3)n2)cc1S(=O)(=O)Nc1ccc(Cl)cn1` [compound 1385, N-(5-(N-(5-chloropyridin-2-yl)sulfamoyl)-6-methoxypyridin-3-yl)-2-phenylthiazole-4-carboxamide], the half-maximal effective concentration (EC50) was in the range of 10 to 20 µM and the maximum response (Emax) was 160 to 199%.

`COc1cccc(OC)c1NS(=O)(=O)c1cc(NC(=O)c2csc(-c3ccccc3)n2)cnc1OC` [compound 1386, N-(5-(N-(2,6-dimethoxyphenyl)sulfamoyl)-6-methoxypyridin-3-yl)-2-phenylthiazole-4-carboxamide]: the half-maximal effective concentration (EC50) was < 10 µM and the Emax lay in the range of 200 to 300%.

As for `COc1ncc(NC(=O)c2csc(-c3ccccc3)n2)cc1S(=O)(=O)Nc1c(C)cc(Cl)cc1C` [compound 1388, N-(5-(N-(4-chloro-2,6-dimethylphenyl)sulfamoyl)-6-methoxypyridin-3-yl)-2-phenylthiazole-4-carboxamide], the EC50 lay in the range of 10 to 20 µM and the Emax fell in the range of 119 to 159%.

Regarding `COc1ncc(NC(=O)c2csc(-c3ccccc3)n2)cc1S(=O)(=O)Nc1c(C)cc(F)cc1C` [compound 1389, N-(5-(N-(4-fluoro-2,6-dimethylphenyl)sulfamoyl)-6-methoxypyridin-3-yl)-2-phenylthiazole-4-carboxamide], the EC50 was < 10 µM and the maximum response (Emax) lay within 119 to 159%.

Take `Cc1cnc(NC(=O)c2ncc(-c3ccccc3)o2)cc1S(=O)(=O)Nc1ccc(Cl)cc1` [compound 1390, N-(4-(N-(4-chlorophenyl)sulfamoyl)-5-methylpyridin-2-yl)-5-phenyloxazole-2-carboxamide]: the EC50 lay within 10 to 20 µM and the Emax lay within 160 to 199%.

As to `CCc1cccc(C)c1NS(=O)(=O)c1cc(NC(=O)c2csc(-c3ccccc3)n2)cnc1OC` [compound 1393, N-(5-(N-(2-ethyl-6-methylphenyl)sulfamoyl)-6-methoxypyridin-3-yl)-2-phenylthiazole-4-carboxamide], the EC50 is < 10 µM and the Emax was 119 to 159%.

Regarding `COc1ncc(NC(=O)c2cccc3ncn(C)c23)cc1S(=O)(=O)Nc1c(C)cccc1C` [compound 1394, N-(5-(N-(2,6-dimethylphenyl)sulfamoyl)-6-methoxypyridin-3-yl)-1-methyl-1H-benzo[d]imidazole-7-carboxamide], the EC50 was 20 to 100 µM and the Emax lay in the range of 160 to 199%.

As for `COc1ncc(NC(=O)c2cn(C)c3ncccc23)cc1S(=O)(=O)Nc1c(C)cccc1C` [compound 1395, N-(5-(N-(2,6-dimethylphenyl)sulfamoyl)-6-methoxypyridin-3-yl)-1-methyl-1H-pyrrolo[2,3-b]pyridine-3-carboxamide], the EC50 lay in the range of 20 to 100 µM and the Emax lay within 200 to 300%.

For `COc1ncc(NC(=O)c2scc(C)c2Cl)cc1S(=O)(=O)Nc1c(C)cccc1C` [compound 1398], the EC50 is 10 to 20 µM and the Emax was 160 to 199%.

Turning to `COc1ncc(NC(=O)c2ccc3nc(C)sc3c2)cc1S(=O)(=O)Nc1c(C)cccc1C` [compound 1400, N-(5-(N-(2,6-dimethylphenyl)sulfamoyl)-6-methoxypyridin-3-yl)-2-methylbenzo[d]thiazole-6-carboxamide], the EC50 was in the range of 10 to 20 µM and the Emax was 200 to 300%.

On to `COc1ncc(NC(=O)c2cccc(-c3noc(C)n3)c2)cc1S(=O)(=O)Nc1c(C)cccc1C` [compound 1401, N-(5-(N-(2,6-dimethylphenyl)sulfamoyl)-6-methoxypyridin-3-yl)-3-(5-methyl-1,2,4-oxadiazol-3-yl)benzamide], for which the EC50 was 10 to 20 µM and the Emax lay within 160 to 199%.

In the case of `COc1ncc(NC(=O)c2ccc(Cn3cc(Cl)cn3)cc2)cc1S(=O)(=O)Nc1c(C)cccc1C` [compound 1402, 4-((4-chloro-1H-pyrazol-1-yl)methyl)-N-(5(N (2,6dimethylphenyl)sulfamoyl)-6-methoxypyridin-3-yl)benzamide], the EC50 lay within 10 to 20 µM and the Emax lay in the range of 160 to 199%.

Consider `COc1ncc(NC(=O)c2cnc3n2CCCC3)cc1S(=O)(=O)Nc1c(C)cccc1C` [compound 1404, N-(5-(N-(2,6-dimethylphenyl)sulfamoyl)-6-methoxypyridin-3-yl)-5,6,7,8-tetrahydroimidazo[1,2-a]pyridine-3-carboxamide], for which the EC50 fell in the range of 20 to 100 µM and the Emax was > 300%.

As for `COc1ncc(NC(=O)c2csc(-c3ccccc3)n2)cc1S(=O)(=O)Nc1cccc(C#N)c1C` [compound 1406, N-(5-(N-(3-cyano-2-methylphenyl)sulfamoyl)-6-methoxypyridin-3-yl)-2-phenylthiazole-4-carboxamide], the EC50 was < 10 µM and the Emax was 119 to 159%.

For `COc1ncc(NC(=O)c2csc(-c3ccc(F)cc3)n2)cc1S(=O)(=O)Nc1c(C)cccc1C` [compound 1413, N-(5-(N-(2,6-dimethylphenyl)sulfamoyl)-6-methoxypyridin-3-yl)-2-(4-fluorophenyl)thiazole-4-carboxamide], the EC50 is < 10 µM and the Emax was in the range of 119 to 159%.

With `COc1ncc(NC(=O)c2csc(-c3ccccc3)n2)cc1S(=O)(=O)Nc1c(C)nn(C)c1C` [compound 1417, N-(6-methoxy-5-(N-(1,3,5-trimethyl-1H-pyrazol-4-yl)sulfamoyl)pyridin-3-yl)-2-phenylthiazole-4-carboxamide], the EC50 lay within 20 to 100 µM and the Emax is 200 to 300%.

Regarding `CCc1cccc(CC)c1NS(=O)(=O)c1cc(NC(=O)c2csc(-c3ccccc3)n2)cnc1OC` [compound 1418, N-(5-(N-(2,6-diethylphenyl)sulfamoyl)-6-methoxypyridin-3-yl)-2-phenylthiazole-4-carboxamide], the EC50 was < 10 µM and the Emax lay in the range of 119 to 159%.

`Cc1c[n+]([O-])c(NC(=O)c2ncc(-c3ccccc3)o2)cc1S(=O)(=O)Nc1ccc(Cl)cc1` [compound 1420, 4-(N-(4-chlorophenyl)sulfamoyl)-5-methyl-2-(5-phenyloxazole-2-carboxamido) pyridine 1-oxide]: the EC50 lay within 10 to 20 µM and the Emax is 119 to 159%.

In the case of `COc1ncc(NC(=O)c2noc3ccccc23)cc1S(=O)(=O)Nc1c(C)cccc1C` [compound 1421, N-(5-(N-(2,6-dimethylphenyl)sulfamoyl)-6-methoxypyridin-3-yl) benzo[d]isoxazole-3-carboxamide], the EC50 is < 10 µM and the Emax fell in the range of 200 to 300%.

As for `COc1ncc(NC(=O)c2nn(C)c3ccccc23)cc1S(=O)(=O)Nc1c(C)cccc1C` [compound 1423, N-(5-(N-(2,6-dimethylphenyl)sulfamoyl)-6-methoxypyridin-3-yl)-1-methyl-1H-indazole-3-carboxamide], the EC50 is < 10 µM and the Emax is 160 to 199%.

`COc1ncc(NC(=O)c2nn(C)c3c2CCCC3)cc1S(=O)(=O)Nc1c(C)cccc1C` [compound 1424, N-(5-(N-(2,6-dimethylphenyl)sulfamoyl)-6-methoxypyridin-3-yl)-1-methyl-4,5,6,7-tetrahydro-1H-indazole-3-carboxamide]: the EC50 was 10 to 20 µM and the Emax was in the range of 200 to 300%.

`COc1ncc(NC(=O)c2csc3c2CCC3)cc1S(=O)(=O)Nc1c(C)cccc1C` [compound 1425, N-(5-(N-(2,6-dimethylphenyl)sulfamoyl)-6-methoxypyridin-3-yl)-5,6-dihydro-4H-cyclopenta[b]thiophene-3-carboxamide]: the concentration for a half-maximal effect (EC50) was < 10 µM and the Emax is 160 to 199%.

Take `COc1ncc(NC(=O)c2cnc(-c3ccccc3)[nH]2)cc1S(=O)(=O)Nc1ccc(Cl)cc1` [compound 1481, N-(5-(N-(4-chlorophenyl)sulfamoyl)-6-methoxypyridin-3-yl)-2-phenyl-1H-imidazole-5-carboxamide]: the EC50 was 10 to 20 µM and the Emax was 160 to 199%.

`COc1cccc(C)c1NS(=O)(=O)c1cc(NC(=O)c2coc(-c3ccccc3)n2)cnc1OC` [compound 1484, N-(6-methoxy-5-(N-(2-methoxy-6-methylphenyl)sulfamoyl)pyridin-3-yl)-2-phenyloxazole-4-carboxamide]: the EC50 was < 10 µM and the Emax was in the range of 160 to 199%.

Values taken from patent US20230159509A1 (Amathus Therapeutics, Inc., priority 2020, published 2023).
